Test results as given in patent US9944602B2, “Piperidinone herbicides” (E. I. DU PONT DE NEMOURS AND COMPANY, priority 2014, dated 2018).

What was measured:
Type in all cases: in vivo
[1] = tested on: barnyardgrass (Echinochloa crus-galli); experiment: Test A preemergence barnyardgrass; conditions: 0 to 100 scale; for Barnyardgrass plant response rating: 125 g ai/ha, 0 no effect, 100 complete control; for Plant response rating, Barnyardgrass: 500 g ai/ha, 0 is no effect, 100 is complete control
How it was run: (§1)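 Directed soil spray at planting gives preemergence data; foliar application to one- to two-leaf plants gives postemergence data. Response is visual injury relative to untreated controls about 10 d after treatment, scored 0–100.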

[2] = tested on: crabgrass, large (large crabgrass, Digitaria sanguinalis); experiment: Test A preemergence crabgrass, large; conditions: 0 to 100 scale; for Crabgrass, Large plant response rating: 125 g ai/ha, 0 no effect, 100 complete control; for Plant response rating, Crabgrass, Large: 500 g ai/ha, 0 is no effect, 100 is complete control
Text: (§2) Seeds of plant species selected from barnyardgrass (Echinochloa crus-galli), kochia (Kochia scoparia), ragweed (common ragweed, Ambrosia elatior), ryegrass, Italian (Italian ryegrass, Lolium multiflorum), crabgrass, large (large crabgrass, Digitaria sanguinalis), foxtail, giant (giant foxtail, Setaria faberii), morningglory (Ipomoea spp.), pigweed (Amaranthus retroflexus), velvetleaf (Abutilon theophrasti), wheat (Triticum aestivum), and corn (Zea mays) were planted into a blend of loam soil and sand and treated preemergence with a directed soil spray using test chemicals formulated in a non-phytotoxic solvent mixture which included a surfactant.
(§3) At the same time, plants selected from these crop and weed species and also blackgrass (Alopecurus myosuroides), and galium (catchweed bedstraw, Galium aparine) were planted in pots containing the same blend of loam soil and sand and treated with postemergence applications of test chemicals formulated in the same manner. Plants ranged in height from 2 to 10 cm and were in the one- to two-leaf stage for the postemergence treatment. Treated plants and untreated controls were maintained in a greenhouse for approximately 10 d, after which time all treated plants were compared to untreated controls and visually evaluated for injury. Plant response ratings, summarized in Table A, are based on a 0 to 100 scale where 0 is no effect and 100 is complete control. A dash (-) response means no test result.

[3] = tested on: foxtail, giant (giant foxtail, Setaria faberii); experiment: Test A preemergence foxtail, giant; conditions: 0 to 100 scale, 0 no effect, 100 complete control
How it was run: as §1

[4] = tested on: morningglory (Ipomoea spp.); experiment: Test A preemergence morningglory; conditions: 0 to 100 scale, 0 no effect, 100 complete control
Text: as §2, §3

[5] = tested on: pigweed (Amaranthus retroflexus); experiment: Test A preemergence pigweed; conditions: 0 to 100 scale, 0 no effect, 100 complete control
How it was run: as §1

[6] = tested on: velvetleaf (Abutilon theophrasti); experiment: Test A preemergence velvetleaf; conditions: 0 to 100 scale, 0 no effect, 100 complete control
Text: as §2, §3

[7] = tested on: wheat (Triticum aestivum); experiment: Test A preemergence wheat; conditions: 0 to 100 scale, 0 no effect, 100 complete control
Text: as §2, §3

corn (Zea mays) [8] = experiment: Test A preemergence corn; conditions: 0 to 100 scale; for Corn plant response rating: 125 g ai/ha, 0 no effect, 100 complete control; for Plant response rating, Corn: 500 g ai/ha, 0 is no effect, 100 is complete control
Text: as §2, §3

[9] = tested on: barnyardgrass (Echinochloa crus-galli); experiment: Test A postemergence barnyardgrass; conditions: 0 to 100 scale, 0 is no effect, 100 is complete control
How it was run: as §1

[10] = tested on: crabgrass, large (large crabgrass, Digitaria sanguinalis); experiment: Test A postemergence crabgrass, large; conditions: 0 to 100 scale, 0 is no effect, 100 is complete control
Text: as §2, §3

[11] = tested on: foxtail, giant (giant foxtail, Setaria faberii); experiment: Test A postemergence foxtail, giant; conditions: 0 to 100 scale, 0 is no effect, 100 is complete control
How it was run: as §1

[12] = tested on: morningglory (Ipomoea spp.); experiment: Test A postemergence morningglory; conditions: 0 to 100 scale, 0 is no effect, 100 is complete control
Text: as §2, §3

[13] = tested on: pigweed (Amaranthus retroflexus); experiment: Test A postemergence pigweed; conditions: 0 to 100 scale, 0 is no effect, 100 is complete control
How it was run: as §1

[14] = tested on: velvetleaf (Abutilon theophrasti); experiment: Test A postemergence velvetleaf; conditions: 0 to 100 scale, 0 is no effect, 100 is complete control
Text: as §2, §3

[15] = tested on: wheat (Triticum aestivum); experiment: Test A postemergence wheat; conditions: 0 to 100 scale, 0 is no effect, 100 is complete control
How it was run: as §1

corn (Zea mays) [16] = experiment: Test A postemergence corn; conditions: 0 to 100 scale, 0 is no effect, 100 is complete control
How it was run: as §1

rice (Oryza sativa) = experiment: Test B flooded paddy test rice; conditions: Table B, Flood, 250 g ai/ha, scale 0 to 100
How it was run: (§4)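 Visual injury relative to controls was scored after 13 to 15 d in the greenhouse. Treatment was by adding compound straight to flood water 3 cm deep, maintained for the whole test, on plants at the 2-leaf stage.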

[17] = tested on: sedge, umbrella (small-flower umbrella sedge, Cyperus difformis); experiment: Test B flooded paddy test sedge, umbrella; conditions: Table B, Flood, 250 g ai/ha, scale 0 to 100
How it was run: as §4

[18] = tested on: ducksalad (Heteranthera limosa); experiment: Test B flooded paddy test ducksalad; conditions: Table B, Flood, 250 g ai/ha, scale 0 to 100
How it was run: as §4

[19] = tested on: barnyardgrass (Echinochloa crus-galli); experiment: Test B flooded paddy test barnyardgrass; conditions: Table B, Flood, 250 g ai/ha, scale 0 to 100
How it was run: as §4

SMILES | Barnyardgrass plant response rating [1] | Plant response rating, Barnyardgrass [1] | Crabgrass, Large plant response rating [2] | Plant response rating, Crabgrass, Large [2] | Foxtail, Giant plant response rating ([3]; 125 g ai/ha) | Foxtail, Giant plant response rating ([3]; 500 g ai/ha) | Morningglory plant response rating ([4]; 125 g ai/ha) | Morningglory plant response rating ([4]; 500 g ai/ha) | Pigweed plant response rating ([5]; 125 g ai/ha) | Pigweed plant response rating ([5]; 500 g ai/ha) | Velvetleaf plant response rating ([6]; 125 g ai/ha) | Velvetleaf plant response rating ([6]; 500 g ai/ha) | Wheat plant response rating ([7]; 125 g ai/ha) | Wheat plant response rating ([7]; 500 g ai/ha) | Corn plant response rating (corn (Zea mays) [8]) | Plant response rating, Corn (corn (Zea mays) [8]) | Plant response rating, Barnyardgrass ([9]; 125 g ai/ha) | Plant response rating, Barnyardgrass ([9]; 500 g ai/ha) | Plant response rating, Crabgrass, Large ([10]; 125 g ai/ha) | Plant response rating, Crabgrass, Large ([10]; 500 g ai/ha) | further results
O=C1NCCC(c2ccccc2)C1C(=O)Nc1ccccc1C(F)(F)F (racemic) [Compound 2] | 0 | 20 | 70 | 90 | 10 | 70 | 0 | 0 | 0 | 0 | 0 | 0 | 0 | 0 | 0 | 0 | 0 | 0 | 0 | 10 | Plant response rating, Foxtail, Giant ([11]; 125 g ai/ha): 0; Plant response rating, Foxtail, Giant ([11]; 500 g ai/ha): 0; Plant response rating, Morningglory ([12]; 125 g ai/ha): 0; Plant response rating, Morningglory ([12]; 500 g ai/ha): 0; Plant response rating, Pigweed ([13]; 125 g ai/ha): 0; Plant response rating, Pigweed ([13]; 500 g ai/ha): 0; Plant response rating, Velvetleaf ([14]; 125 g ai/ha): 0; Plant response rating, Velvetleaf ([14]; 500 g ai/ha): 0; Plant response rating, Wheat ([15]; 125 g ai/ha): 0; Plant response rating, Wheat ([15]; 500 g ai/ha): 0; Plant response rating, Corn (corn (Zea mays) [16]; 125 g ai/ha): 0; Plant response rating, Corn (corn (Zea mays) [16]; 500 g ai/ha): 0; Plant response rating (rice (Oryza sativa)): 0; Plant response rating [17]: 0; Plant response rating [18]: 0; Plant response rating [19]: 0
O=C1NCCC(c2ccccc2)C1C(=O)Nc1ccccc1F (racemic) [Compound 3] | 0 | 0 | 0 | 30 | 0 | 0 | 0 | 0 | 0 | 0 | 0 | 0 | 0 | 20 | 0 | 0 | 0 | 0 | 0 | 0 | Plant response rating, Foxtail, Giant ([11]; 125 g ai/ha): 0; Plant response rating, Foxtail, Giant ([11]; 500 g ai/ha): 0; Plant response rating, Morningglory ([12]; 125 g ai/ha): 0; Plant response rating, Morningglory ([12]; 500 g ai/ha): 0; Plant response rating, Pigweed ([13]; 125 g ai/ha): 0; Plant response rating, Pigweed ([13]; 500 g ai/ha): 0; Plant response rating, Velvetleaf ([14]; 125 g ai/ha): 0; Plant response rating, Velvetleaf ([14]; 500 g ai/ha): 0; Plant response rating, Wheat ([15]; 125 g ai/ha): 0; Plant response rating, Wheat ([15]; 500 g ai/ha): 0; Plant response rating, Corn (corn (Zea mays) [16]; 125 g ai/ha): 0; Plant response rating, Corn (corn (Zea mays) [16]; 500 g ai/ha): 0; Plant response rating (rice (Oryza sativa)): 0; Plant response rating [17]: 0; Plant response rating [18]: 0; Plant response rating [19]: 0
O=C1NCCC(c2ccc(F)cc2)C1C(=O)Nc1ccccc1C(F)(F)F (racemic) [Compound 4] | 0 | 50 | 90 | 90 | 10 | 70 | 0 | 0 | 0 | 0 | 0 | 0 | 0 | 0 | 0 | 0 | 0 | 20 | 40 | 70 | Plant response rating, Foxtail, Giant ([11]; 125 g ai/ha): 0; Plant response rating, Foxtail, Giant ([11]; 500 g ai/ha): 0; Plant response rating, Morningglory ([12]; 125 g ai/ha): 0; Plant response rating, Morningglory ([12]; 500 g ai/ha): 0; Plant response rating, Pigweed ([13]; 125 g ai/ha): 0; Plant response rating, Pigweed ([13]; 500 g ai/ha): 0; Plant response rating, Velvetleaf ([14]; 125 g ai/ha): 0; Plant response rating, Velvetleaf ([14]; 500 g ai/ha): 0; Plant response rating, Wheat ([15]; 125 g ai/ha): 0; Plant response rating, Wheat ([15]; 500 g ai/ha): 0; Plant response rating, Corn (corn (Zea mays) [16]; 125 g ai/ha): 0; Plant response rating, Corn (corn (Zea mays) [16]; 500 g ai/ha): 0; Plant response rating (rice (Oryza sativa)): 0; Plant response rating [17]: 0; Plant response rating [18]: 0; Plant response rating [19]: 0
O=C1NCCC(c2ccc(F)cc2)C1C(=O)Nc1ccccc1F (racemic) [Compound 5] | 0 | 30 | 60 | 90 | 30 | 50 | 0 | 0 | 0 | 0 | 0 | 0 | 0 | 0 | 0 | 0 | 0 | 30 | 0 | 0 | Plant response rating, Foxtail, Giant ([11]; 125 g ai/ha): 0; Plant response rating, Foxtail, Giant ([11]; 500 g ai/ha): 0; Plant response rating, Morningglory ([12]; 125 g ai/ha): 0; Plant response rating, Morningglory ([12]; 500 g ai/ha): 0; Plant response rating, Pigweed ([13]; 125 g ai/ha): 0; Plant response rating, Pigweed ([13]; 500 g ai/ha): 0; Plant response rating, Velvetleaf ([14]; 125 g ai/ha): 0; Plant response rating, Velvetleaf ([14]; 500 g ai/ha): 0; Plant response rating, Wheat ([15]; 125 g ai/ha): 0; Plant response rating, Wheat ([15]; 500 g ai/ha): 0; Plant response rating, Corn (corn (Zea mays) [16]; 125 g ai/ha): 0; Plant response rating, Corn (corn (Zea mays) [16]; 500 g ai/ha): 0; Plant response rating (rice (Oryza sativa)): 0; Plant response rating [17]: 0; Plant response rating [18]: 0; Plant response rating [19]: 0
O=C1NCCC(c2ccc(F)c(F)c2)C1C(=O)Nc1ccccc1C(F)(F)F (racemic) [Compound 6] | 60 | 80 | 90 | 90 | 60 | 90 | 0 | 0 | 0 | 0 | 0 | 0 | 0 | 0 | 0 | 0 | 0 | 50 | 50 | 80 | Plant response rating, Foxtail, Giant ([11]; 125 g ai/ha): 30; Plant response rating, Foxtail, Giant ([11]; 500 g ai/ha): 70; Plant response rating, Morningglory ([12]; 125 g ai/ha): 0; Plant response rating, Morningglory ([12]; 500 g ai/ha): 0; Plant response rating, Pigweed ([13]; 125 g ai/ha): 0; Plant response rating, Pigweed ([13]; 500 g ai/ha): 30; Plant response rating, Velvetleaf ([14]; 125 g ai/ha): 0; Plant response rating, Velvetleaf ([14]; 500 g ai/ha): 0; Plant response rating, Wheat ([15]; 125 g ai/ha): 0; Plant response rating, Wheat ([15]; 500 g ai/ha): 0; Plant response rating, Corn (corn (Zea mays) [16]; 125 g ai/ha): 0; Plant response rating, Corn (corn (Zea mays) [16]; 500 g ai/ha): 0; Plant response rating (rice (Oryza sativa)): 0; Plant response rating [17]: 0; Plant response rating [18]: 60; Plant response rating [19]: 0
